Results published in ChEMBL document CHEMBL5233252, “Single and dual target inhibitors based on Bcl-2: Promising anti-tumor agents for cancer therapy” (Eur J Med Chem, 2020).
Where a SMILES comes first, the peptide text is derived from it.

Assays:
[1] = Inhibition of Bcl-2/Mcl-1 in human MCF7 cells; format: cell-based
[2] = biological target: T1, Apoptosis regulator Bcl-2 (Homo sapiens, UniProt P10415); assay: Inhibition of Bcl-2 (unknown origin) by ELISA analysis
[3] = biological target: T1, Apoptosis regulator Bcl-2; assay: Inhibition of Flu-BakBH3 binding to GST-tagged Bcl-2 (unknown origin) preincubated for 10 mins followed by Flu-BakBH3 addition and measured after 30 mins by competitive fluorescence polarization assay
Bcl-2-like protein 1 [4] = biological target: T2, Bcl-2-like protein 1 (Homo sapiens, UniProt Q07817); assay: Binding affinity to recombinant His-tagged human Bcl-xL expressed in Escherichia coli assessed as inhibition constant by SPR analysis
[5] = biological target: T3, Induced myeloid leukemia cell differentiation protein Mcl-1 (Homo sapiens, UniProt Q07820); assay: Binding affinity to Mcl-1 (unknown origin) assessed as inhibition constant
[6] = biological target: T1, Apoptosis regulator Bcl-2; assay: Binding affinity to Bcl-2 (unknown origin) assessed as inhibition constant
Bcl-2-like protein 1 [7] = biological target: T2, Bcl-2-like protein 1; assay: Binding affinity to Bcl-xL (unknown origin) assessed as inhibition constant
Bcl-2-like protein 2 = biological target: T4, Bcl-2-like protein 2 (Homo sapiens, UniProt Q92843); assay: Binding affinity to Bcl-w (unknown origin) assessed as inhibition constant by competitive fluorescence polarization assay
T4 sequence (Q92843 whole entry): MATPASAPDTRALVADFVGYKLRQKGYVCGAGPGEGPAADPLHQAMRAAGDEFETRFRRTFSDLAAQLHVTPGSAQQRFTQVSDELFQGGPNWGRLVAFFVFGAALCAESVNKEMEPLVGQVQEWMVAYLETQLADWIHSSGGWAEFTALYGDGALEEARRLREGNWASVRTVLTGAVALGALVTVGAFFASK

[8] = biological target: T1, Apoptosis regulator Bcl-2; assay: Binding affinity to recombinant Bcl-2 (unknown origin) expressed in Escherichia coli BL21 (DE3) cells assessed as dissociation constant by MST analysis
RS4-11 = assay: Induction of apoptosis in human RS4-11 cells; format: functional, cell-based
[9] = Half-life in human; format: ADME
[10] = biological target: T3, Induced myeloid leukemia cell differentiation protein Mcl-1; assay: Binding affinity to Mcl-1 (unknown origin) assessed as inhibition constant by TR-FRET assay
[11] = biological target: T1, Apoptosis regulator Bcl-2; assay: Binding affinity to recombinant His-tagged human Bcl-2 expressed in Escherichia coli assessed as inhibition constant by SPR analysis
[12] = biological target: T1, Apoptosis regulator Bcl-2; assay: Binding affinity to Bcl-2 (unknown origin) by ELISA analysis
[13] = biological target: T1, Apoptosis regulator Bcl-2; assay: Inhibition of Flu-BakBH3 binding to recombinant GST-tagged Bcl-2 (unknown origin) incubated for 30 mins by competitive fluorescence polarization assay

T1 sequence (P10415 whole entry): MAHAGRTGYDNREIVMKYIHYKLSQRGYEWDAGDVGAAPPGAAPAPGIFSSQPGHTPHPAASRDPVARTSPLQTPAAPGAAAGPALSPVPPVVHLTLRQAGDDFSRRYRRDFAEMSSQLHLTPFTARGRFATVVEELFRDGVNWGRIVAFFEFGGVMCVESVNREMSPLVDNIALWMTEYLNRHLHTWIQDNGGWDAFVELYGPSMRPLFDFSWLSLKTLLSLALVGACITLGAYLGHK
T2 sequence (Q07817 whole entry): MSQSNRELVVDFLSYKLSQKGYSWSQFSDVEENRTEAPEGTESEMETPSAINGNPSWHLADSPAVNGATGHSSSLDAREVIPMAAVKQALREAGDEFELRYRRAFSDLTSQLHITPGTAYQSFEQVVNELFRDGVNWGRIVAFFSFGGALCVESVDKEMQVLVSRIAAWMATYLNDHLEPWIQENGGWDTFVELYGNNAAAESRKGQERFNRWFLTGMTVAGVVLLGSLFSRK
T3 sequence (Q07820 whole entry): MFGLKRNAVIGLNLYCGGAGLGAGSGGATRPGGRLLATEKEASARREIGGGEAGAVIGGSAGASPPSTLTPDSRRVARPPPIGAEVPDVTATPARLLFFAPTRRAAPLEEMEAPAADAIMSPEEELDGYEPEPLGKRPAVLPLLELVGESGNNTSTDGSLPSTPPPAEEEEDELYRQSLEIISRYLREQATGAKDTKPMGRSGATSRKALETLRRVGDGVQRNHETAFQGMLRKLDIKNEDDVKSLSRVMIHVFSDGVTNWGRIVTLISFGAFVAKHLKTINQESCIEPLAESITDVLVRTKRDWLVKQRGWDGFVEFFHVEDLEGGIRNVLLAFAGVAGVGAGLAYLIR

Molecule: CC(C)(C)c1ccc(C(=O)NCCN2C(=O)c3cccc4c(Sc5ccc(Br)cc5)ccc(c34)C2=O)cc1
- IC50 [1]: 7900 nM
- IC50 [2]: 2110 nM

Molecule: Cc1cc2c(C(C)C)c(O)c(O)cc2c(O)c1-c1c(C)cc2c(C(C)C)c(O)c(O)cc2c1O [APOGOSSYPOL]
- EC50 [3]: 2800 nM

Molecule: CCCCCCCCCCCCCCCC(=O)N[C@H](C(=O)N[C@@H](C)C(=O)N[C@@H](CCC(N)=O)C(=O)N[C@@H](CCC(=O)O)C(=O)N[C@@H](CCCNC(=N)N)C(=O)N[C@@H](CCCNC(=N)N)C(=O)N[C@H](C(=O)NCC(=O)N[C@@H](CC(=O)O)C(=O)N[C@@H](CCC(=O)O)C(=O)N[C@@H](Cc1ccccc1)C(N)=O)[C@@H](C)CC)[C@@H](C)CC (HELM PEPTIDE1{[CCCCCCCCCCCCCCCC(=O)[*:2]].I.A.Q.E.R.R.I.G.D.E.F.[am]}$$$$V2.0)
- Ki (Bcl-2-like protein 1 [4]): 22.2 nM

Molecule: CC1=C(C2=C(C)C(=O)C3C(C(C)C)=C(O)C(O)=CC3C2=O)C(=O)c2cc(O)c(O)c(C(C)C)c2C1=O (stereo not given)
- Ki [5]: 25 nM
- Ki [6]: 35 nM
- Ki (Bcl-2-like protein 1 [7]): 660 nM

Molecule: CC1(C)CCC(c2ccc(Cl)cc2)=C(CN2CCN(c3ccc(C(=O)NS(=O)(=O)c4ccc(N[C@H](CCN5CCOCC5)CSc5ccccc5)c(S(=O)(=O)C(F)(F)F)c4)cc3)CC2)C1 [NAVITOCLAX]
- Ki (Bcl-2-like protein 2): ≤ 1 nM

Molecule: COc1c(O)cc(O)c2c(=O)cc(-c3ccc(O)c(O)c3)oc12
- Kd [8]: 36100 nM

Molecule: CC1(C)CCC(CN2CCN(c3ccc(C(=O)NS(=O)(=O)c4ccc(NCC5CCOCC5)c([N+](=O)[O-])c4)c(Oc4cnc5[nH]ccc5c4)c3)CC2)=C(c2ccc(Cl)cc2)C1 [VENETOCLAX]
- EC50 (RS4-11): 3 nM
- half-life [9]: 26 h
- Ki [10]: > 444 nM

Molecule: Ac-IAQERRIGDEF-NH2
- Ki [11]: 9.48 nM

Molecule: O=[N+]([O-])c1ccccc1Nc1nnc(-c2c[nH]c3ccccc23)o1
- IC50 [12]: 4270 nM

Molecule: CCOC(=O)C1=C(N)Oc2ccc(Br)cc2C1C(C#N)C(=O)OCC (stereo not given)
- IC50 [13]: 9000 nM
